Among the data in US20060148683A1, “Detection and treatment of intravascular lesions” (priority 2001, published 2006) are Kd values, retold here.

One may read the Kd as the equilibrium constant for the complex coming apart. Broadly, the pKd is the Kd on a negative log10 scale, so that one unit is a factor of ten.

Each structure is given as a SMILES string. pKd: −log10 of the molar value. Starred links: 1 amine or outer side, 2 acyl side, 3 side chain; linkers in the order of their positions; H or OH if unused. Positions of bridges follow the written chain, without caps; N, C: chain ends. Non-standard residues stand in square brackets, D forms with d. Residues, ends and D or L forms follow the SMILES beside them. Groups on a side chain read outwards from the residue. ξ: configuration not given here. *: point of attachment. NH(Fluorescein-5-yl) = O=C1OC2(c3ccc(O)cc3Oc3cc(O)ccc32)c2ccc(N*)cc21; Tyr(3-I) = N[C@@H](Cc1ccc(O)c(I)c1)C(=O)O; Mca = COc1ccc2c(CC(=O)*)cc(=O)oc2c1; Hyp = O=C(O)[C@@H]1C[C@@H](O)CN1; Ile(3ξ) = CCC(C)[C@H](N)C(=O)O; CO = O=C([*:1])[*:2]; Ahx = NCCCCCC(=O)O; βAla = NCCC(=O)O

T1 sequence (P02671 130-216 limits assumed, stated change not applied): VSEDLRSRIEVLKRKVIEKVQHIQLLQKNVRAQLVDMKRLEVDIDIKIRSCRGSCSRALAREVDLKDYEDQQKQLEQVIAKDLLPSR
T1 sequence (P02671 36-97 limits assumed, stated change not applied): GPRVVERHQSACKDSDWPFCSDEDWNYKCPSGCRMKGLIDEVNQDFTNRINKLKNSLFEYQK
T1 sequence (P02675 164-491 limits assumed, stated change not applied): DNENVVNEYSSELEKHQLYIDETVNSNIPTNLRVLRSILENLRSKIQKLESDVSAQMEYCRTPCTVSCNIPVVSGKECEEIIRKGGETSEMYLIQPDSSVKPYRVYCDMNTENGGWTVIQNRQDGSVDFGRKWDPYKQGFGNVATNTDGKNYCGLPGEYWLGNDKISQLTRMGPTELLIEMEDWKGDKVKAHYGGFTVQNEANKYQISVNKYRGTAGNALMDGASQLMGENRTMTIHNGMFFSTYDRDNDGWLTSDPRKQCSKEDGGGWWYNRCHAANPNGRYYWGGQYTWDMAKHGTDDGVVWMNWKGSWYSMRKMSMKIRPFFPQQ
T1 sequence (P02675 45-152 limits assumed, stated change not applied): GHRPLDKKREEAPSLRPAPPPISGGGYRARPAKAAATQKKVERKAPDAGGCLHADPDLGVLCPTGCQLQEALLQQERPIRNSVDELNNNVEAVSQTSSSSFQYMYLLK
T1 sequence (P02679 114-432 limits assumed, stated change not applied): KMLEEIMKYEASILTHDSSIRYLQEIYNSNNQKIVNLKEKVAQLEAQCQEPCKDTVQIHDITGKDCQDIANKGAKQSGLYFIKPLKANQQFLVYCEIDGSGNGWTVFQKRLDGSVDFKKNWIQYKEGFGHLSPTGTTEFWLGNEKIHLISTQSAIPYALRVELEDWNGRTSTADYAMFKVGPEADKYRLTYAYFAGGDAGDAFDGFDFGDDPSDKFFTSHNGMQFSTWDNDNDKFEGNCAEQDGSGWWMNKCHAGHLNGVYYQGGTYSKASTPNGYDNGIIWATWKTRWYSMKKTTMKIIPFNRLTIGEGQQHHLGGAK
T1 sequence (P02679 27-88 limits assumed, stated change not applied): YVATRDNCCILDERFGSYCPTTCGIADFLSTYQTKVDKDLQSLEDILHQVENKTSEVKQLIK

The first assay concerns the target T1, DD(E) fragment of fibrin (Homo sapiens, UniProt P02671+P02675+P02679, DEL433-453).
T1 construct: complex of the crosslinked D domains of adjacent fibrin monomers with the central E domain of fibrin
Kind of assay: Dissociation constant (Kd) of optical agent for DD(E) fragment of fibrin. The assay is classed as binding. As to conditions: 24° C.; read-out: Kd (μM) vs. DD(E) @ 24° C. The source says: Optical agents of the invention include an OD and a FBM covalently bound to each other, either directly or via a linker (OD-L-FBM). The FBM can be a small molecule or a peptide. As used herein, the term “peptide” refers to a chain of amino acids that is about 2 to about 75 amino acids in length (e.g., 3 to 50 amino acids). Affinity of a peptide for fibrin can be expressed in terms of its dissociation constant (Kd), which is the equilibrium constant for the dissociation reaction of the peptide from the DD(E) fragment of fibrin. The term “DD(E) fragment of fibrin” refers to a fibrin subcomponent generated by proteolytic degradation of fibrin with plasmin or trypsin. The DD(E) fragment is a complex of the crosslinked D domains of adjacent fibrin monomers with the central E domain of fibrin (See, for example, Spraggon et al., Nature 389:455462 (1997)). Since DD(E) is a product resulting from the proteolysis of fibrin, one of skill in the art will understand that there may be some slight heterogeneity in its composition. The DD(E) fragment can be biotinylated and immobilized via avidin to a solid substrate (e.g., a multi-well plate). Peptides can be incubated with the immobilized DD(E) fragment in a suitable buffer and binding detected using known methodology. Methods for determining the dissociation constant of the peptide for DD(E) are set forth in WO 01/09188.
As a result of the FBM having affinity for fibrin, the optical agent also has affinity for fibrin. The term “affinity” refers to the capacity of the optical agent to be taken up by, retained by, or bound to the fibrin in the lesion. The affinity of an optical agent can be expressed in terms of its Kd, which is the equilibrium constant for the dissociation reaction of the optical agent from fibrin, and determined as discussed above for the peptide. The dissociation constant of the optical agent for DD(E) can have a value less than about 10 μM (e.g., 0.1 μM to 10 μM). In one embodiment, the dissociation constant value is less than about 5 μM. In another embodiment, the dissociation constant value is less than about 1 μM. The dissociation constant also may have a value less than about 0.3 μM (e.g., 0.2 μM).
In the methods of the present invention, the optical agent forms a fibrin-optical agent complex at the site of the lesion. The ability of the optical agent to form a fibrin-optical agent complex may be measured by examining the optical agent's dissociation constant (Kd) for a DD(E) fragment of fibrin as discussed above.
As to `CC[C@H](C)[C@H](NC(=O)[C@H](Cc1c[nH]cn1)NC(=O)[C@@H]1CSSC[C@H](NC(=O)[C@H](Cc2c[nH]cn2)NC(=O)[C@H](Cc2ccccc2)NC(=O)CNC(=O)CCCCCNC(=O)Nc2ccc3c(c2)C(=O)OC32c3ccc(O)cc3Oc3cc(O)ccc32)C(=O)N2C[C@H](O)C[C@H]2C(=O)N[C@@H](Cc2ccc(O)c(I)c2)C(=O)N[C@@H](CC(=O)O)C(=O)N[C@@H](CC(C)C)C(=O)N1)C(=O)N[C@@H](CC(C)C)C(N)=O` [Structure III] ({NH(Fluorescein-5-yl)-CO-Ahx}-GFHC[Hyp][Tyr(3-I)]DLCHIL-NH2; disulfide 4-9), the Kd was found to be 0.1 µM.
On the same count and under the same terms, with `CC[C@H](C)[C@H](NC(=O)[C@H](Cc1c[nH]cn1)NC(=O)[C@@H]1CSSC[C@H](NC(=O)[C@H](Cc2c[nH]cn2)NC(=O)[C@H](Cc2ccccc2)NC(=O)CCCCCNC(=O)Nc2ccc3c(c2)C(=O)OC32c3ccc(O)cc3Oc3cc(O)ccc32)C(=O)N2C[C@H](O)C[C@H]2C(=O)N[C@@H](Cc2ccc(O)c(I)c2)C(=O)N[C@@H](CC(=O)O)C(=O)N[C@@H](CC(C)C)C(=O)N1)C(=O)N[C@@H](CC(C)C)C(N)=O` [Structure II] ({NH(Fluorescein-5-yl)-CO-Ahx}-FHC[Hyp][Tyr(3-I)]DLCHIL-NH2; disulfide 3-8) the figure was 0.1 µM.
On to `CC[C@H](C)[C@H](NC(=O)[C@H](Cc1c[nH]cn1)NC(=O)[C@@H]1CSSC[C@H](NC(=O)[C@H](Cc2c[nH]cn2)NC(=O)[C@H](Cc2ccccc2)NC(=O)[C@H](Cc2c[nH]c3ccccc23)NC(=O)CCCCCNC(=O)Nc2ccc3c(c2)C(=O)OC32c3ccc(O)cc3Oc3cc(O)ccc32)C(=O)N2C[C@H](O)C[C@H]2C(=O)N[C@@H](Cc2ccc(O)c(I)c2)C(=O)N[C@@H](CC(=O)O)C(=O)N[C@@H](CC(C)C)C(=O)N1)C(=O)N[C@@H](CC(C)C)C(N)=O` [Structure IV] ({NH(Fluorescein-5-yl)-CO-Ahx}-WFHC[Hyp][Tyr(3-I)]DLCHIL-NH2; disulfide 4-9), for which the Kd amounted to 0.06 µM.
On the same count and under the same terms, the result for `CC[C@H](C)[C@H](NC(=O)[C@H](Cc1c[nH]cn1)NC(=O)[C@@H]1CSSC[C@H](NC(=O)[C@H](Cc2c[nH]cn2)NC(=O)[C@H](Cc2ccccc2)NC(=O)CNC(=O)CNC(=O)[C@@H](N)CCCCNC(=O)Nc2ccc3c(c2)C(=O)OC32c3ccc(O)cc3Oc3cc(O)ccc32)C(=O)N2C[C@H](O)C[C@H]2C(=O)N[C@@H](Cc2ccc(O)c(I)c2)C(=O)N[C@@H](CC(=O)O)C(=O)N[C@@H](CC(C)C)C(=O)N1)C(=O)N[C@@H](CC(C)C)C(N)=O` [Structure IX] (H-K([CO-NH(Fluorescein-5-yl)])GGFHC[Hyp][Tyr(3-I)]DLCHIL-NH2; disulfide 6-11) reads 0.1 µM.
Turning to `CC[C@H](C)[C@H](NC(=O)[C@H](Cc1c[nH]cn1)NC(=O)[C@@H]1CSSC[C@H](NC(=O)[C@H](Cc2c[nH]cn2)NC(=O)[C@H](Cc2ccccc2)NC(=O)CCNC(=O)Nc2ccc3c(c2)C(=O)OC32c3ccc(O)cc3Oc3cc(O)ccc32)C(=O)N2C[C@H](O)C[C@H]2C(=O)N[C@@H](Cc2ccc(O)c(I)c2)C(=O)N[C@@H](CC(=O)O)C(=O)N[C@@H](CC(C)C)C(=O)N1)C(=O)N[C@@H](CC(C)C)C(N)=O` [Structure I] ({NH(Fluorescein-5-yl)-CO-βAla}-FHC[Hyp][Tyr(3-I)]DLCHIL-NH2; disulfide 3-8), the equilibrium dissociation constant (Kd) was found to be 0.1 µM.
Regarding `CC[C@H](C)[C@H](NC(=O)[C@H](Cc1c[nH]cn1)NC(=O)[C@@H]1CSSC[C@H](NC(=O)[C@H](Cc2c[nH]cn2)NC(=O)[C@H](Cc2ccccc2)NC(=O)CNC(=O)CNC(=O)CCCCCNC(=O)Nc2ccc3c(c2)C(=O)OC32c3ccc(O)cc3Oc3cc(O)ccc32)C(=O)N2C[C@H](O)C[C@H]2C(=O)N[C@@H](Cc2ccc(O)c(I)c2)C(=O)N[C@@H](CC(=O)O)C(=O)N[C@@H](CC(C)C)C(=O)N1)C(=O)N[C@@H](CC(C)C)C(N)=O` [Structure V] ({NH(Fluorescein-5-yl)-CO-Ahx}-GGFHC[Hyp][Tyr(3-I)]DLCHIL-NH2; disulfide 5-10), the dissociation constant (Kd) was determined as 0.09 µM.

Staying with this assay, now noted: read-out: Kd vs. DD(E).
For the molecule `CCC(C)[C@H](NC(=O)[C@H](Cc1c[nH]c2ccccc12)NC(=O)[C@@H]1CSSC[C@H](NC(=O)[C@H](CCC(=O)O)NC(=O)[C@H](Cc2c[nH]c3ccccc23)NC(=O)[C@@H](CCC(N)=O)NC(=O)CCCCCNC(=O)Cc2cc(=O)oc3cc(OC)ccc23)C(=O)N2CCC[C@H]2C(=O)N[C@@H](Cc2ccc(O)cc2)C(=O)NCC(=O)N[C@@H](CC(C)C)C(=O)N1)C(=O)N[C@@H](CCC(N)=O)C(N)=O` (some centres unmarked) [Structure XIII] ({Mca-Ahx}-[dQ]WECPYGLCW[Ile(3ξ)]Q-NH2; disulfide 4-9), the negative-log Kd (pKd) was 6.70.
For the molecule `COc1ccc2c(CC(=O)NCCCCCC(=O)N[C@@H](CC(C)C)C(=O)N3CCC[C@H]3C(=O)N[C@H]3CSSC[C@@H](C(=O)N[C@@H](CC(C)C)C(=O)N[C@@H](CC(=O)O)C(N)=O)NC(=O)[C@H](C(C)O)NC(=O)CNC(=O)[C@H](Cc4ccc(O)cc4)NC(=O)[C@H](Cc4ccc(O)cc4)NC(=O)[C@H](CC(=O)O)NC3=O)cc(=O)oc2c1` (some centres unmarked) [Structure XII], the pKd is 5.18.
